Test results: publication PMC2621068 (Neuropeptides, 2008)
Values joined by “and” are separate entries in the source; they are usually repeats but may differ in a detail not shown here. Equal entries are not always repeated.

What was measured:
[1] = tested on: female Kuming mice; settings: mouse, in vivo
[2] = tested on: female mice; format: in vivo, mouse; settings: for paw withdrawal latency as % of pre-administration values: mouse, in vivo
[3] = tested on: Kuming mice; format: in vivo, mouse; settings: for first phase response of the formalin test (in words) / second phase response of the formalin test (in words): n = 8; for paw biting/licking behaviors after subcutaneous peptide (in words): mouse, in vivo, sc
[4] = tested on: Kuming mice; format: in vivo, mouse; settings: for effect on writhing responses (in words): n = 8; for number of abdominal contortions: mouse, in vivo
[5] = tested on: Kuming mice; settings: mouse, in vivo; for edematogenic response after subcutaneous peptide (in words): sc
[6] = tested on: NMDAR; settings: cited from earlier work
[7] = tested on: NMDAR; settings: cited from earlier work; remark: listed apart in the source
[8] = tested on: Kuming mice; settings: mouse, in vivo
[9] = tested on: mice; settings: mouse, in vivo
[10] = in vivo; cited from earlier work
[11] = tested on: mice; settings: mouse, in vivo; cited from earlier work

| Substance | Paw withdrawal latency after peptide administration, 30 min [1] | Paw withdrawal latency after peptide administration, 90 min [1] | Paw withdrawal latency after peptide administration, 150 min [1] | Paw withdrawal latency after peptide administration, 240 min [1] | Paw withdrawal latency before peptide administration [1] | antinociception in the hot-plate test (in words) [1] | first phase response of the formalin test (in words) [3] | second phase response of the formalin test (in words) [3] | effect on writhing responses (in words) [4] | Increase in paw width [5] | Injected paw width, after formalin injection [5] | Injected paw width, before formalin injection [5] | IC50 [6] | further results |
| --- | --- | --- | --- | --- | --- | --- | --- | --- | --- | --- | --- | --- | --- | --- |
| GEγγLGKAQALIRAAYA-NH2 [Ala-con-G] | 20.3 ± 8.6 s and 11.9 ± 3.4 s | 20.9 ± 5.7 s and 22.4 ± 9.5 s | 24.6 ± 10.4 s and 17.1 ± 7.5 s | 16.1 ± 5.0 s and 20.0 ± 16.1 s | 15.3 ± 3.0 s and 11.3 ± 1.9 s | ineffective at antinociception at all time points examined | significantly reduced the time spent responding to the afflicted paw | neither Ala-con-G nor con-R[1-17] provided antinociception | failed to attenuate writhing responses | 0.97 ± 0.05 mm | 2.56 ± 0.05 mm | 1.60 ± 0.02 mm | 180 nM | effect on withdrawal latencies in the CFA model (in words) ([2]; n = 8): failed to alter withdrawal latencies; components of binding to adult rat brain sections (in words) [7]: only the high-affinity NMDAR-specific component of binding |
| GEγγLQKNQγLIRγKSN-NH2 [con-G[γ7K]] | 11.9 ± 4.3 s and 21.5 ± 12.5 s | – | – | – | 14.9 ± 3.5 s and 15.1 ± 3.9 s | – | significantly reduced the time spent responding to the afflicted paw | – | failed to attenuate writhing responses | – | – | – | 220 nM | – |
| GEγγLQγNQγLIRAKSN-NH2 [con-G[γ14A]] | 10.0 ± 3.3 s | 20.4 ± 14.2 s | ^ˆ25.4 ± 9.3 s | ^ˆ22.8 ± 8.6 s | 11.3 ± 1.5 s | ineffective at antinociception at all time points examined | – | – | – | – | – | – | 230 nM | – |
| GEγγLQγNQγLIRAKYN-NH2 [con-G[S16Y]] | – | – | – | – | 13.4 ± 3.1 s and 9.0 ± 2.1 s | highest antinociceptive activity | significantly reduced the time spent responding to the afflicted paw | highly effective in reducing the responses to the afflicted paw | significantly effective in modulating responses to the acid stimulus | 0.76 ± 0.05 mm | 2.33 ± 0.05 mm | 1.57 ± 0.03 mm | 140 nM | paw withdrawal latency as % of pre-administration values [2]: 80%; increase of paw withdrawal latency compared to the day 3 controls ([2]; n = 8): ~2 s; paw biting/licking behaviors after subcutaneous peptide (in words) [3]: did not significantly diminish paw biting/licking behaviors; number of abdominal contortions [4]: 6.4 ± 4.6; edematogenic response after subcutaneous peptide (in words) [5]: nor did they reduce the edematogenic response; increase in potency in the [3H]MK-801 binding assay compared to con-G [6]: 3.5 fold; day 3 paw diameter after peptide injection [8]: 2.26 ± 0.058 mm; day 3 paw diameter before peptide injection [8]: 2.36 ± 0.039 mm; motor impairment in the rotarod test, comparison of the two peptides (in words) [9]: reverse effect; motor toxicity in the rotarod test relative to saline (in words) [9]: some toxicity; rotarod stay time, 60 min versus 240 min test times (in words) [9]: no significant differences; share of peptide associated with a low-affinity, non-receptor site [7]: approximately 80% |
| con-G[N8A]: NR2B-selective con-G variant (GEEELQEAQELIREKSN; not fully specified; Conantokin-G; UniProt P07231 81-97, looked up, variant N8A) | 11.6 ± 4.2 s | 13.5 ± 4.8 s | 12.6 ± 2.5 s | 13.8 ± 3.1 s | 11.1 ± 2.5 s | ineffective at antinociception at all time points examined | – | – | – | – | – | – | 490 nM | – |
| conantokin-G [con-G] | 12.2 ± 4.5 s and 12.6 ± 12.5 s | – | – | – | 11.6 ± 2.1 s and 11.6 ± 2.5 s | – | significantly reduced the time spent responding to the afflicted paw | highly effective in reducing the responses to the afflicted paw | – | 0.83 ± 0.03 mm | 2.38 ± 0.03 mm | 1.55 ± 0.02 mm | 480 nM | paw withdrawal latency as % of pre-administration values [2]: 80%; increase of paw withdrawal latency compared to the day 3 controls ([2]; n = 8): approximately 1 s; paw biting/licking behaviors after subcutaneous peptide (in words) [3]: did not significantly diminish paw biting/licking behaviors; number of abdominal contortions [4]: 8.3 ± 6.0; edematogenic response after subcutaneous peptide (in words) [5]: nor did they reduce the edematogenic response; median toxic dose, rotarod test [10]: ca. 300 pmol; percent inhibition of responses, first phase of the formalin test [11]: 25-35% |
| conantokin-T [con-T] | 13.1 ± 3.1 s | 15.4 ± 4.8 s | 16.5 ± 4.6 s | 16.8 ± 4.5 s | 11.9 ± 2.9 s | without effect | – | – | – | – | – | – | 400 nM | median toxic dose, rotarod test [10]: ca. 300 pmol; percent inhibition of responses, first phase of the formalin test [11]: 25-35% |
